According to US8513277B2, “Pyrrolo[3,2-C] pyridine derivatives and processes for the preparation thereof” (Yuhan Corporation, priority 2004, dated 2013):
Structures can show the parent of a compound that is named as a salt.

Key:
[1] = molecular target: T1, H+/K+-ATPase (hog gastric vesicle) (Sus scrofa, UniProt P19156); assay: Inhibitory effects on proton pump (H+/K+-ATPase) activity; type: biochemical; conditions: K+ stimulated H+/K+-ATPase activity, hog gastric vesicles, Pi measured at 620 nm
T1 construct: used as an enzyme source of the in vitro enzyme reaction assay of proton pump; from tissue; host or cells: hog gastric fundic mucosa, membrane vesicles (sucrose/Ficoll gradient), lyophilized
T1 sequence (P19156 2-1034 limits assumed): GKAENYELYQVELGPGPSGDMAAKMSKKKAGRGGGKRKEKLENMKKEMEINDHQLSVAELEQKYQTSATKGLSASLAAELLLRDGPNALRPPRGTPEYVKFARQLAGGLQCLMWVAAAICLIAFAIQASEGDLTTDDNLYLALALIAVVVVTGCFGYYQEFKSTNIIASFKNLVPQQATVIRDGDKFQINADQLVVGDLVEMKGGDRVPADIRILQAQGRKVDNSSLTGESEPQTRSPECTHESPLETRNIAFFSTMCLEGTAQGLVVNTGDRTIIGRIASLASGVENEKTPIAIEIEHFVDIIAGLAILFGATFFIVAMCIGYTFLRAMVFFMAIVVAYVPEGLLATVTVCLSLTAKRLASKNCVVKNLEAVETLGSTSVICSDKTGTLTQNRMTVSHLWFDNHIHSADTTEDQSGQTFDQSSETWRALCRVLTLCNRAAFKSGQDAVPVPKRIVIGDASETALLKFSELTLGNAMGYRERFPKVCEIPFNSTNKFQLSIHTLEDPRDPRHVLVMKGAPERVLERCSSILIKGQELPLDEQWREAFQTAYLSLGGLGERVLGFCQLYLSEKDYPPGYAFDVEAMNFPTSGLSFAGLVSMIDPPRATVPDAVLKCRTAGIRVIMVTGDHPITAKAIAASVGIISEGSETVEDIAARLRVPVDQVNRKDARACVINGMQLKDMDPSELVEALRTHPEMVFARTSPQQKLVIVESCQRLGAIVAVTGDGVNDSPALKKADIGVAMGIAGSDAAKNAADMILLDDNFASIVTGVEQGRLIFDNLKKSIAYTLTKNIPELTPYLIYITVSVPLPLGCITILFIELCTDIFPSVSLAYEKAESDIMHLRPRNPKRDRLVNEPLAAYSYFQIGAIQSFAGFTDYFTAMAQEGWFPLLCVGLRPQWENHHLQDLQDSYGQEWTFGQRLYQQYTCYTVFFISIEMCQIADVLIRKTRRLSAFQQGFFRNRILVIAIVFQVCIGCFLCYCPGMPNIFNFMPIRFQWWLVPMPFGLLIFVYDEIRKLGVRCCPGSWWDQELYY
T1 sequence (P18434 whole entry partner): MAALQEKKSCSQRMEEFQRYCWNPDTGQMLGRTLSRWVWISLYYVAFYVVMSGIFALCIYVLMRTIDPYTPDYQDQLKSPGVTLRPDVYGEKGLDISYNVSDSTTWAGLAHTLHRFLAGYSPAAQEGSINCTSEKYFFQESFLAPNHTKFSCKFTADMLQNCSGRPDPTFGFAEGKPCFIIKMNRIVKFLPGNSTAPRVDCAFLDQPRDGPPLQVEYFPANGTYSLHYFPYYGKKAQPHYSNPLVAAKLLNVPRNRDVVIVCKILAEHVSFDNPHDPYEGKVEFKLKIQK
Protocol: The hog fundic regions containing parietal and peptic cells were scraped with slide-glass. The collected cells were suspended in 10 ml of 0.25M sucrose buffer and homogenized using a tight-fitting Teflon-glass homogenizer. The homogenate was centrifuged for 35 min at 8,000 rpm and the pellet was discarded. The supernatant was further centrifuged for 75 min at 25,000 rpm. The resulting pellets were re-suspended in the sucrose buffer (10 ml), and then the suspension was laid onto discontinuous density gradients consisting of 0.25M sucrose buffer and isolation medium containing 9% Ficoll (w/w). After being centrifuged for 3 hours and 15 minutes at 100,000×g, the material at the interface of sucrose buffer and Ficoll solution was collected and then centrifuged for 40 minutes at 100,000×g. The resulting pellets were re-suspended in 1 ml of 5 mM […] buffer (pH 6.1). This material was lyophilized and stored at −70° C. and used as an enzyme source of the in vitro enzyme reaction assay of proton pump. The inhibitory effects of the compounds of the present invention against proton pump activity were evaluated in 96-well plate. In this assay, the K^+ specific H^+/K^+-ATPase activity was calculated based on the difference between the activity of H^+/K^+-ATPase activity with K^+ and without K^+ ion. In 96-well plate, 1% dimethylsulfoxide (DMSO) in buffer was added to negative and positive control groups and the diluted compounds of the present invention in buffer were added to test group. All assays were performed in 100 μl reaction volume at room temperature, and the hog gastric vesicle was kept in ice before use. […] Then lyophilized vesicle in 5 mM Pipes/Tris buffer (pH 6.1) was pre-incubated in the presence of various concentrations of test compounds. After a 5 minute incubation, negative and positive buffers were respectively added to the previous reaction mixture. As the substrate, ATP was added to the reaction buffer, and incubated for 30 minutes at 37° C. Enzymatic activity was stopped by the addition of colorimetric reagent (2× malachite green, 1× ammonium molybdate, 1× polyvinyl alcohol, 2× H2O) and the amount of mono phosphate (Pi) in the reaction was measured at 620 nm using the micro plate reader (Genios Pro, TECAN). The difference between the Pi production with K^+ and without K^+ is taken as K^+ stimulated H^+/K^+-ATPase activity. The IC50s of test compounds were calculated from each % inhibition value of compounds using the method of Litchfield-Wilcoxon (J. Pharmacol. Exp. Ther. (1949) 96, 99).

[2] = system: basal gastric acid secretion in pylorus-ligated rats; assay: Inhibitory effects on basal gastric acid secretion in pylorus-ligated rats (Shay's rat model); type: in vivo, rat (Sprague Dawley); conditions: oral, one hour before pylorus ligation, total acid output 5 hours after ligation, male SD rats
Protocol: Inhibitory effects of the compounds of the present invention on basal gastric acid secretion were performed according to Shay's rat model (Shay, H., et al., 1945, gastroenterology, 5, 43-61). Male Sprague Dawley (SD) rats (200±10 g body weight) were divided into […] (n=5) and fasted for 24 hours with free access to water. Control group was orally administered with 0.5% methylcellulose alone and the other groups were orally administered with test compounds suspended in 0.5% methylcellulose solution at doses of 1, 3 and 10 mg/kg/5 ml one hour before pylorus ligation.
Under ether anesthesia, the abdomens of the rats were incised and then the pylorus was ligated. 5 hours after ligation, the animals were sacrificed, and the gastric contents were collected. The collected contents were centrifuged at 1,000×g for 10 minutes to obtain the gastric juice. Total acid output was measured by 0.01 N NaOH volume (ueq/ml) for automatic titration of the gastric juice to pH 7.0 and the ED50s of test compounds were calculated using the Litchfield-Wilcoxon method. % inhibitory activity was calculated from the following equation and the results are shown in Table 2.
% inhibitory activity of test compound=(total acid output of control group−total acid output of the group treated with test compounds)/total acid output of control group×100

hog gastric H+/K+-ATPase = molecular target: T2, hog gastric H+/K+-ATPase (Sus scrofa, UniProt P19156); assay: Reversible inhibition of hog gastric H+/K+-ATPase (washout method); type: biochemical
T2 construct: Gastric vesicles were prepared from hog fundic mucosa; from tissue; host or cells: hog fundic mucosa, gastric vesicles (microsomes), lyophilized
T2 sequence (P19156 2-1034 limits assumed): as the sequence (P19156 2-1034 limits assumed) above
T2 sequence (P18434 whole entry partner): as the sequence (P18434 whole entry partner) above
Protocol: Gastric vesicles were prepared from hog fundic mucosa using the method of Saccomani et al. (Saccomani G, Stewart H B, Shqw D, Lewin M and Sachs G, Characterization of gastric mucosal membranes. IX. Fraction and purification of K-ATPase-containing vesicles by zonal centrifugation and free-flow electrophoresis technique. Biochem. Biophy. Acta. (BBA)-Biomembranes 465, 311-330, 1977). This material was lyophilized and stored at −70° C. The protein content of gastric vesicles was determined by the Bradford method using bovine serum albumin as a standard (Bradford MM, A rapid and sensitive method for the quantitation of microgram quantities of protein utilizing the principle of protein-dye binding. Anal Biochem. 72, 248-254, 1976).
Activity of H^+/K^+-ATPase in hog microsome (lyophilized vesicle) was measured by the inorganic phosphate released from ATP using an one-step colorimetric detection method at the concentration at which the test compounds have 50% inhibition of the proton pump (Chan K M, Delfert D, and Junger K D, A direct colorimetric assay for Ca^2+-stimulated ATPase activity. Anal Biochem, 157, 375-380, 1986). […]

IC50 [1] [nM] | SMILES | also measured
< 4000 | Cc1c(Cc2ccccc2)c2c(N3CCc4ccccc4C3)nccc2n1Cc1ccccc1 [Example 66, 1,3-dibenzyl-2-methyl-4-(1,2,3,4-tetrahydroisoquinolin-2-yl)-1H-pyrrolo[3,2-c]pyridine hydrochloride] | –
280 | Cc1c(Cc2ccccc2)c2c(N3CCc4ccccc4C3)nccc2n1C1CC1 [Example 61, 3-benzyl-1-cyclopropyl-2-methyl-4-(1,2,3,4-tetrahydroisoquinolin-2-yl)-1H-pyrrolo[3,2-c]pyridine hydrochloride] | –
470 | Cc1[nH]c2ccnc(N3CCc4ccccc4C3)c2c1C [Example 1, 2,3-dimethyl-4-(1,2,3,4-tetrahydroisoquinolin-2-yl)-1H-pyrrolo[3,2-c]pyridine] | –
2050 | COCCn1c(C)c(C)c2c(N3CCc4ccccc4C3)nccc21 [Example 3, 2,3-dimethyl-1-(2-methoxyethyl)-4-(1,2,3,4-tetrahydroisoquinolin-2-yl)-1H-pyrrolo[3,2-c]pyridine hydrochloride] | –
< 4000 | COCCn1c(C)c(Cc2ccccc2)c2c(N3CCc4ccccc4C3)nccc21 [Example 63, 3-benzyl-1-(2-methoxyethyl)-2-methyl-4-(1,2,3,4-tetrahydroisoquinolin-2-yl)-1H-pyrrolo[3,2-c]pyridine hydrochloride] | –
530 | Cc1[nH]c2ccnc(NCc3ccc(F)cc3)c2c1Cc1ccccc1 [Example 71, 3-benzyl-2-methyl-4-(4-fluorobenzylamino)-1H-pyrrolo[3,2-c]pyridine hydrochloride] | –
220 | Cc1[nH]c2ccnc(N3CCc4ccccc4C3)c2c1Cc1ccccc1 [Example 70, 3-benzyl-2-methyl-4-(1,2,3,4-tetrahydroisoquinolin-2-yl)-1H-pyrrolo[3,2-c]pyridine sodium] | –
2120 | Cc1c(Cc2ccccc2)c2c(N3CCc4ccccc4C3)nccc2n1CC1OCCO1 [Example 65, 3-benzyl-1-([1,3]dioxolan-2-ylmethyl)-2-methyl-4-(1,2,3,4-tetrahydroisoquinolin-2-yl)-1H-pyrrolo[3,2-c]pyridine hydrochloride] | –
230 | Cc1c(Cc2ccccc2)c2c(N3CCc4ccccc4C3)nccc2n1C.Cl [Example 56, 3-benzyl-1,2-dimethyl-4-(1,2,3,4-tetrahydroisoquinolin-2-yl)-1H-pyrrolo[3,2-c]pyridine hydrochloride] | ED50 [2]: 2.9 mg/kg
90 | Cc1[nH]c2ccnc(N3CCc4ccccc4C3)c2c1Cc1ccccc1.Cl [Example 55, 3-benzyl-2-methyl-4-(1,2,3,4-tetrahydroisoquinolin-2-yl)-1H-pyrrolo[3,2-c]pyridine hydrochloride] | ED50 [2]: 1.6 mg/kg; inhibition of H+/K+-ATPase activity after washout (hog gastric H+/K+-ATPase; after washout, compared with non-treated group): did not inhibit; inhibition of H+/K+-ATPase activity before washout (hog gastric H+/K+-ATPase; before washout, compound at the concentration giving 50% inhibition): 50%
< 4000 | Cc1c(C)n(CCO)c2ccnc(N3CCc4ccccc4C3)c12 [Example 20, 2,3-dimethyl-1-(2-hydroxyethyl)-4-(1,2,3,4-tetrahydroisoquinolin-2-yl)-1H-pyrrolo[3,2-c]pyridine hydrochloride] | –
430 | Cc1c(C)n(C)c2ccnc(N3CCc4ccccc4C3)c12 [Example 6, 1,2,3-trimethyl-4-(1,2,3,4-tetrahydroisoquinolin-2-yl)-1H-pyrrolo[3,2-c]pyridine hydrochloride] | –
1030 | CCn1c(C)c(C)c2c(N3CCc4ccccc4C3)nccc21 [Example 7, 1-ethyl-2,3-dimethyl-4-(1,2,3,4-tetrahydroisoquinolin-2-yl)-1H-pyrrolo[3,2-c]pyridine hydrochloride] | –
